The source of these data is BindingDB's records for doi:10.1016/j.bmcl.2010.10.094 (Universit&#224, 2010).

This assay deals with carbonic anhydrase XII (human). Nature of the assay: Inhibition of human recombinant CA12 catalytic domain by stopped-flow CO2 hydration method.

As usually defined, the Ki is a measure of affinity in units of concentration, obtained from inhibition or displacement. For the compound `CCOc1ccc2ccc(=O)oc2c1C(C)=O` [8-acetyl-7-ethoxy-2H-chromen-2-one], the Ki was determined as 1 nM. `CCCOc1cc2oc(=O)ccc2cc1C(C)=O` [6-acetyl-7-propoxy-2H-chromen-2-one]: the Ki is over 100000 nM. Regarding `CC(=O)c1c(OCCC23CC4CC(CC(C4)C2)C3)ccc2ccc(=O)oc12` [8-Acetyl-7-(2-adamantan-1-yl-ethoxy)-chromen-2-one], the Ki came out at 31.5 nM. As to `CCCOc1ccc2ccc(=O)oc2c1C(C)=O` [8-acetyl-7-propoxy-2H-chromen-2-one], the inhibitory constant (Ki) came to 0.98 nM. Consider `CCOc1ccc2ccc(=O)oc2c1C(=O)CC` [7-ethoxy-8-propionyl-2H-chromen-2-one], for which the Ki stood at 33.2 nM.

Regarding `CC(=O)c1c(OCc2ccccc2)ccc2ccc(=O)oc12` [8-acetyl-7-(benzyloxy)-2H-chromen-2-one], the Ki came out at 22.4 nM.
